Assay results as given in patent publication US5332812A, “Solid-phase substrate containing modified heparin” (Board of Regents, The University of Texas System, priority 1991, dated 1994).
“Also recorded” adds a separate entry of the source.

Experiments:
B16 melanoma heparanase [1] = assay: Enzymatic degradation of 3H-labeled glycosaminoglycans by B16 melanoma cell extract, analysed by high-speed gel permeation chromatography; assay type: biochemical, mouse; details: for Degradation (heparanase susceptibility): 3H-labeled glycosaminoglycan, cell extract 80 ug protein, pH 6.0, 6 hr at 37 C, 20 mM SAL, decrease in area of high Mr half of peak; for Cleavage by melanoma heparanase (in words): B16 melanoma cell extracts in presence of SAL, FIG. 2; for Percentage degradation of the original substrate: first 6 h incubation with B16 cell extract
Source text: The abilities of B16 cells to degrade HS from various origins and other purified glycosaminoglycans (heparin, chondroitin 4-sulfate, chondroitin 6-sulfate, dermatan sulfate, keratan sulfate, and hyaluronic acid) has been studied. […] HS metabolically labeled with [^35 S] sulfate was purified from basement membrane producing EHS sarcoma and PYS-2 carcinoma cells, and subendothelial matrices of bovine aortic endothelial (BAE) and corneal endothelial (BCE) cells (ibid). HS molecules purified from bovine lung and other glycosaminoglycans were labeled with tritium at their reducing termini using NaB[^3 H]4. […] In order to determine specific HS cleavage points, the newly formed reducing termini of HS fragments were investigated by: labeling with NaB[^3 H]4; hydrolysis to monosaccharides; and analysis of these saccharides by paper chromatography.
High-speed gel permeation chromatography. […] A one hundred microliter aliquot of sample solution was delivered into the injection port, and the chromatographic elution was performed with 0.2M sodium chloride at a flow rate of 1.0 ml/min at 55° C. […] In the analysis of radiolabeled materials, fractions corresponding to each 36 s of elution (0.6 ml) were collected and mixed with 3.0 ml of Liquiscint (National Diagnostics, Comerville, N.J.), and counted on a Beckman LS 2800 liquid scintillation counter (Beckman Instruments, Irvine, Calif.).
Enzymatic degradation of unmodified and modified HS. […] The incubation was carried out at 37° C. with gentle mixing, and was terminated by chilling the mixture to 4° C. and adding 20 ul of trichloroacetic acid to a final concentration of 5%. The supernatant was obtained by centrifugation at 9800×g for 5 min and it was subjected to analysis by high-speed gel permeation chromatography.
The effect of N-desulfation and N-acetylation of HS on its susceptibility to melanoma heparanase was assessed using HS labeled with tritium at the reducing terminal saccharide. […] HS labeled with tritium at the reducing end was N-desulfated by solvolysis with DMSO, and N-desulfated [^3 H]HS was then N-acetylated with acetic anhydride. These three ^3 H-labeled, chemically modified HS molecules were analyzed by cellulose acetate electrophoresis in 0.5M pyridine-acetate buffer, pH 5.0.
N-Desulfated and N-acetylated heparin.

B16 melanoma heparanase [2] = details: labeled glycosaminoglycans, with or without D-saccharic acid 1,4-lactone; cited from earlier work
[3] = tested on: human melanoma heparanase; assay: Degradation by heparanase obtained from a human melanoma cell line; assay type: biochemical
[4] = tested on: human melanoma heparanase; assay: Inhibition of human melanoma heparanase; assay type: biochemical
Source text: Properties of human melanoma heparanase.

B16 melanoma heparanase [5] = details: cited from earlier work

Degradation (heparanase susceptibility) (B16 melanoma heparanase [1])	Substance	Degradation by B16 cell extracts (earlier publications) (B16 melanoma heparanase [2])	other results
- (less than 5%)	Carboxyl reduced heparin		
+ (more than 80%)	Heparan sulfate [Heparan sulfate (HS)]	degraded into fragments of characteristic molecular weight	Cleavage by melanoma heparanase (in words) (B16 melanoma heparanase [1]): cleaved by melanoma heparanase at high rates; Degradation by human melanoma heparanase (in words) [3]: degrades heparan sulfate
- (less than 5%)	Heparin	essentially undegraded; also recorded: inactive	Percentage degradation of the original substrate (B16 melanoma heparanase [1]): less than 5%; Inhibition of melanoma heparanase (in words) [4]: potent inhibitors; Inhibition of HS degradation / B16 melanoma heparanase (earlier publications) (B16 melanoma heparanase [5]): inhibited HS degradation; also recorded: potent inhibitor
+ (more than 80%)	N,O-Desulfated HS		
+ (more than 80%)	N,O-Desulfated and N-acetylated HS		
± (5% to 15%)	N,O-Desulfated and N-acetylated heparin		
- (less than 5%)	N,O-Desulfated heparin		
- (less than 5%)	N-Desulfated and N-methylated heparin		
- (less than 5%)	N-Desulfated heparin		
± (5% to 15%)	N-desulfated N-acetylated heparin [N-Desulfated and N-acetylated heparin]		Percentage degradation of the original substrate (B16 melanoma heparanase [1]): approximately 20%; Further cleavage after prolonged incubation (B16 melanoma heparanase [1]; prolonged incubation with B16 cell extract): not further cleaved; Degradation by human melanoma heparanase (in words) [3]: only partially degrade
+ (more than 80%)	N-desulfated heparan sulfate [N-Desulfated HS]		Cleavage by melanoma heparanase (in words) (B16 melanoma heparanase [1]): cleaved by melanoma heparanase at high rates; Degradation by human melanoma heparanase (in words) [3]: efficiently cleave
	chondroitin 4-sulfate	essentially undegraded	
	chondroitin 6-sulfate	essentially undegraded	
	dermatan sulfate	essentially undegraded	
	dextransulfate		Inhibition of melanoma heparanase (in words) [4]: potent inhibitors
	hyaluronic acid	essentially undegraded	
	keratan sulfate	essentially undegraded	

Substance	Degradation (heparanase susceptibility) (B16 melanoma heparanase [1])	Degradation by B16 cell extracts (earlier publications) (B16 melanoma heparanase [2])	other results
N-desulfated N-acetylated heparan sulfate [N-Desulfated and N-acetylated HS]	+ (more than 80%)		Cleavage by melanoma heparanase (in words) (B16 melanoma heparanase [1]): cleaved by melanoma heparanase at high rates; Degradation by human melanoma heparanase (in words) [3]: efficiently cleave
